Measured values: patent publication US20120208848A1 (NEUROSYSTEC CORPORATION, priority 2005, published 2012)

Key:
Type in all cases: physicochemical
[1] = Gacyclidine remaining in solution as a function of pH and excipients, 37° C., polypropylene vials
Procedure: This same procedure was conducted at 37° C., and the samples were maintained in polypropylene vials (VWR # 20170-710, 2 mL vial).

[2] = Effect of pH on gacyclidine decomposition and solubility in Ringer's solution at 55° C.; settings: 100 μM in Ringer's solution, 24 hours, pH 7.3 to 8.1, no excipient
Procedure: These samples were then incubated at 55° C. for 24 hours.
The pH of each sample was determined at 55° C. by use of a pH meter standardized at 55° C. The pH meter, electrode and standards were the same as described in Example 3.

[3] = Loss of 25 μM gacyclidine in polypropylene vials with and without SOLUTOL HS 15; settings: 0.15 M NaCl, 37° C., one or three days
Procedure: Some of these solutions also contained 0.1% SOLUTOL® HS 15.
Although the results after three days of incubation parallel those obtained after one day of incubation at 37° C., the increased loss observed at low pH in the samples incubated for three days presumably reflected losses due to decomposition.

[4] = Solubility of gacyclidine chloride salt and free base in water / Ringer's solution
Description: The free base form of gacyclidine is poorly soluble in water and adheres to plastic surfaces.

[5] = Chemical stability of gacyclidine acid and base forms (decomposition to piperidine); settings: for decomposition rate: 54° C.; for time required for 10% loss of gacyclidine due to decomposition / rate of decomposition: acid form
Procedure: To monitor piperidine formation a Zorbax SB-CN column (25×0.46 cm, 5 μm; PN 880975, SN USS F01 3866) purchased from Agilent Technologies was maintained at 30° C. and eluted with a mixture composed of 50% Buffer A and 50% Buffer B at 150 μL/minute for 60 minutes. Buffer A was composed of water containing 0.1% trifluoroacetic acid and Buffer B was composed of acetonitrile containing 0.1% trifluoroacetic acid. The effluent from this column was interfaced with an AQA single quadrupole mass spectrometer (Thermo Electron) and a Surveyor PDA detector (UV monitor, Thermo Electron). The column effluent was monitored at 232 nm and scans were collected between 200 to 300 nm by use of the PDA detector. […] Piperidine was detected by the mass spectrometer at 16.0 minutes after injection onto the Zorbax SB-CN column (at m/z=86 only). Piperidine could not be detected by use of the PDA (UV monitor).
Both sets of samples were then incubated for various lengths of time at either 54 or 56° C.
At 5° C., the rate of decomposition was very slow and was difficult to measure, except by determining piperidine formation. The rate of decomposition at 5° C. was approximately 0.0001 day^−1, as determined by piperidine formation, or 0.000055 day^−1 as determined by extrapolation from the rates at higher temperature according to the Arrhenius relationship.

[6] = Effect of pH and polysorbate 80 on gacyclidine stability in Ringer's solution at 55° C.
Procedure: These samples were then incubated at 55° C. for 24 hours. […] The pH of each sample was determined at 55° C. by use of a pH meter standardized at 55° C. The pH meter, electrode and standards were the same as described in Example 3.

[7] = 0.1% SOLUTOL HS15, 37° C., polypropylene vials
[8] = 0.1% TWEEN 80, 37° C., polypropylene vials
[9] = excess free base added to a solution at physiological pH

CC1CCCCC1(c1cccs1)N1CCCCC1.Cl (stereo not drawn) [gacyclidine, 1-(2-methyl-1-thiophen-2-yl-cyclohexyl)-piperidine hydrochloride]
solubility of the basic form with excipient ([1]; 0.1% CAPTISOL, 37° C., polypropylene containers): did not result in a clearly defined solubility | gacyclidine retained in solution at high pH [1, 7]: ~32 μM | gacyclidine retained in solution at high pH, % of total gacyclidine added [1, 7]: ~3.2% | gacyclidine retained in solution at high pH [1, 8]: about 20 μM | gacyclidine retained in solution at high pH, % of total gacyclidine added [1, 8]: ~2.0% | solubility kinetic at 2 days ([1]; buffered aqueous solution, aqueous buffer, pH 9.2, 37° C., polypropylene vials, presence or absence of 0.1% SOLUPHOR P): ~1 µM | gacyclidine remaining in solution, % of the total gacyclidine added ([1]; pH 9.2, 37° C., polypropylene vials, presence or absence of 0.1% SOLUPHOR P): ~0.1% | loss of gacyclidine from solution [2]: loss of gacyclidine both by decomposition and by precipitation from solution | effect of 0.1% SOLUTOL on losses of gacyclidine from solution [3]: no effect | pH above which losses of gacyclidine were observed [3]: > 6 | pH of solution ([4]; chloride salt, up to 150 mg/ml in water or unbuffered solution): about 4.4 | final concentration of dissolved gacyclidine [4, 9]: ≤ 0.02 mg/mL | pH of solution [4, 9]: ≤ 7.7 | solubility ([4]; pH 4.4, chloride salt of the acid form, water or unbuffered Ringer's solution, read-out: solubility (solutions containing up to)): ≤ 150 mg/mL | gacyclidine remaining in solution (HPLC) ([4]; pH 9.5, 0.05 M CAPSO, 0.1 M NaCl, 0.3 mg/mL added, room temperature, 2 days): 0.0006 mg/mL | solubility thermodynamic ([4]; saline or isotonic, thermodynamic from solid, free base in Ringer's solution reacting with dissolved carbon dioxide, pH 7.6): ~0.02 mg/mL | decomposition rate ([5]; 1.0 mM gacyclidine in 10 mM hydrochloric acid (acid form)): 0.52 day⁻¹ | decomposition rate ([5]; 1.0 mM gacyclidine suspended in 1.5 mM sodium hydroxide (base form)): 0.0013 day⁻¹ | time required for 10% loss of gacyclidine due to decomposition ([5]; 5° C.): 3 years | rate of decomposition ([5]; 5° C., determined by piperidine formation): approximately 0.0001 day^−1 | rate of decomposition ([5]; 5° C., extrapolation from rates at higher temperature (Arrhenius)): 0.000055 day⁻¹ | time required for 10% loss of gacyclidine due to decomposition ([5]; 23° C.): 53 days | time required for 10% loss of gacyclidine due to decomposition ([5]; 37° C.): 3.8 days | rate of decomposition ([5]; 55° C.): 0.73 day⁻¹ | time required for 10% loss of gacyclidine due to decomposition ([5]; 56° C.): 0.138 days | piperidine formed from 100 μM gacyclidine ([6]; 0.3% polysorbate 80, Ringer's solution, 55° C., 24 hours, pH 6.7): 4.5 µM | piperidine formed from 100 μM gacyclidine ([6]; 0.3% polysorbate 80, Ringer's solution, 55° C., 24 hours, pH 8.2): 0.92 µM | loss of gacyclidine due to precipitation ([6]; 0.3% polysorbate 80, Ringer's solution, 55° C., 24 hours, various pH): no loss of gacyclidine due to precipitation | decomposition rate as % of the acid form rate at 55° C. ([6]; 0.3% polysorbate 80, pH 6.7, 55° C.): 6.4% | decomposition rate as % of the acid form rate at 55° C. ([6]; 0.3% polysorbate 80, pH 8.2, 55° C.): 1.3%
